Tested on: patients with advanced or metastatic solid tumors
Test: Phase 1 study: treatment-related adverse events (NCI CTCAE v4.03)
Assay type: in vivo, human
Description: The highest non-severely toxic dose was derived from a dog toxicology study and was used to calculate a clinical starting dose of 10 mg/m^2, which corresponds to one-sixth of the human-equivalent dose. The maximum tolerated dose (MTD) of TAS4464 was investigated using an accelerated titration design. Initially, the starting TAS4464 dose was 10 mg/m^2 and was followed by an initial accelerated stage (i.e., weekly dosing phase) with 100% dose-step increments (level 1: 10 mg/m^2, level 2: 20 mg/m^2, level 3: 40 mg/m^2, and level 4: 56 mg/m^2). The 100% dose-step increments continued until the occurrence of a grade ≥ 2 drug-related toxicity within Cycle 1; dose-limiting toxicity (DLT) within Cycle 1; the next dose level reaching 60 mg/m^2; or any safety concerns. Thereafter, 40% increments were employed in the standard stage.
In the standard stage, three to six patients were to be enrolled, and the dose was escalated in 40% increments if none of the first three patients experienced a DLT. If one patient experienced a DLT, three additional patients were to be enrolled at the same dose level. If two of three or two of six patients experienced a DLT, the dose escalation was to be ceased. […] Additionally, DLT criteria regarding abnormal liver function and discontinuation criteria for study drug administration were added. The TAS4464 dose level for Day 1 of Cycle 1 was then set to 40 mg/m^2 (level 3).
Therefore, TAS4464 was administered every 7 days by 1-h intravenous infusion (± 10 min) at the dose assigned to each level. Study treatment was repeated every 28 days. The dosing regimens of each cohort are summarized in Supplementary Fig. 1.
Secondary objectives included assessment of AEs, treatment-related AEs, objective response rate (ORR), disease control rate (DCR), progression-free survival (PFS), and PK, pharmacodynamic, and pharmacogenomic (PGx) parameters with TAS4464 administration. The National Cancer Institute Common Terminology Criteria for Adverse Events (NCI CTCAE) v4.03 [17] was used to assess the severity of AEs. […] RECIST v1.1 [16] was used to determine clinical response, and all computed tomography images were assessed by the physician at the study site after completion of the imaging procedure. The ORR was defined as the percentage of patients with the best overall response of complete response (CR) or partial response (PR). The DCR was the percentage of patients with a best overall response of CR, PR, stable disease (SD), or non-CR/non-progressive disease (PD). PFS was defined as the time from the date of enrollment until the date of investigator-assessed radiological disease progression or death due to any cause, whichever occurred first.

[1] = All-grade, weekly dosing Level 1 (10 mg/m^2), n = 1
[2] = All-grade, weekly dosing Level 2 (20 mg/m^2), n = 1
[3] = All-grade, weekly dosing Level 3 (40 mg/m^2), n = 3
[4] = All-grade, weekly dosing Level 4 (56 mg/m^2), n = 5
[5] = All-grade, weekly dosing with lead-in Level 3 (20 → 40 mg/m^2), n = 3
[6] = All-grade, weekly dosing with lead-in Level 4 (20 → 56 mg/m^2), n = 3

CCOc1cccc(F)c1C#Cc1cn([C@@H]2O[C@H](CNS(N)(=O)=O)[C@@H](O)[C@H]2O)c2ncnc(N)c12 [TAS4464]
Grade ≥ 2 abnormal liver function tests (10 or 20 mg/m^2 weekly doses): did not occur | Grade ≥ 2 abnormal liver function tests (40 and 56 mg/m^2 weekly doses): five patients | AEs leading to dose reduction (ALT increased, weekly dosing level 4): one patient each | AEs leading to treatment discontinuation (AST and ALT increased, weekly dosing with lead-in period level 4): one patient each | ALP increased (treatment-related adverse event) (All-grade, Total, N = 16): 7 (43.8) n (%) | ALT increased (treatment-related adverse event) (All-grade, Total, N = 16): 11 (68.8) n (%) | AST increased (treatment-related adverse event) (All-grade, Total, N = 16): 10 (62.5) n (%) | Anemia (treatment-related adverse event) (All-grade, Total, N = 16): 3 (18.8) n (%) | Blood bilirubin increased (treatment-related adverse event) (All-grade, Total, N = 16): 3 (18.8) n (%) | Decreased appetite (treatment-related adverse event) (All-grade, Total, N = 16): 5 (31.3) n (%) | Diarrhea (treatment-related adverse event) (All-grade, Total, N = 16): 3 (18.8) n (%) | Fatigue (treatment-related adverse event) (All-grade, Total, N = 16): 2 (12.5) n (%) | GGT increased (treatment-related adverse event) (All-grade, Total, N = 16): 4 (25.0) n (%) | Hypoalbuminemia (treatment-related adverse event) (All-grade, Total, N = 16): 2 (12.5) n (%) | Malaise (treatment-related adverse event) (All-grade, Total, N = 16): 3 (18.8) n (%) | Nausea (treatment-related adverse event) (All-grade, Total, N = 16): 7 (43.8) n (%) | Neuropathy peripheral (treatment-related adverse event) (All-grade, Total, N = 16): 2 (12.5) n (%) | Pyrexia (treatment-related adverse event) (All-grade, Total, N = 16): 2 (12.5) n (%) | Rash (treatment-related adverse event) (All-grade, Total, N = 16): 3 (18.8) n (%) | Vomiting (treatment-related adverse event) (All-grade, Total, N = 16): 4 (25.0) n (%) | WBC decreased (treatment-related adverse event) (All-grade, Total, N = 16): 3 (18.8) n (%) | ALP increased (treatment-related adverse event) [1]: 0 n (%) | ALT increased (treatment-related adverse event) [1]: 1 (100.0) n (%) | AST increased (treatment-related adverse event) [1]: 1 (100.0) n (%) | Anemia (treatment-related adverse event) [1]: 0 n (%) | Blood bilirubin increased (treatment-related adverse event) [1]: 0 n (%) | Decreased appetite (treatment-related adverse event) [1]: 0 n (%) | Diarrhea (treatment-related adverse event) [1]: 0 n (%) | Fatigue (treatment-related adverse event) [1]: 0 n (%) | GGT increased (treatment-related adverse event) [1]: 0 n (%) | Hypoalbuminemia (treatment-related adverse event) [1]: 1 (100.0) n (%) | Malaise (treatment-related adverse event) [1]: 0 n (%) | Nausea (treatment-related adverse event) [1]: 0 n (%) | Neuropathy peripheral (treatment-related adverse event) [1]: 0 n (%) | Pyrexia (treatment-related adverse event) [1]: 0 n (%) | Rash (treatment-related adverse event) [1]: 0 n (%) | Vomiting (treatment-related adverse event) [1]: 0 n (%) | WBC decreased (treatment-related adverse event) [1]: 0 n (%) | ALP increased (treatment-related adverse event) [2]: 0 n (%) | ALT increased (treatment-related adverse event) [2]: 1 (100.0) n (%) | AST increased (treatment-related adverse event) [2]: 0 n (%) | Anemia (treatment-related adverse event) [2]: 0 n (%) | Blood bilirubin increased (treatment-related adverse event) [2]: 0 n (%) | Decreased appetite (treatment-related adverse event) [2]: 0 n (%) | Diarrhea (treatment-related adverse event) [2]: 0 n (%) | Fatigue (treatment-related adverse event) [2]: 0 n (%) | GGT increased (treatment-related adverse event) [2]: 0 n (%) | Hypoalbuminemia (treatment-related adverse event) [2]: 0 n (%) | Malaise (treatment-related adverse event) [2]: 0 n (%) | Nausea (treatment-related adverse event) [2]: 0 n (%) | Neuropathy peripheral (treatment-related adverse event) [2]: 0 n (%) | Pyrexia (treatment-related adverse event) [2]: 0 n (%) | Rash (treatment-related adverse event) [2]: 0 n (%) | Vomiting (treatment-related adverse event) [2]: 0 n (%) | WBC decreased (treatment-related adverse event) [2]: 0 n (%) | ALP increased (treatment-related adverse event) [3]: 2 (66.7) n (%) | ALT increased (treatment-related adverse event) [3]: 1 (33.3) n (%) | AST increased (treatment-related adverse event) [3]: 1 (33.3) n (%) | Anemia (treatment-related adverse event) [3]: 0 n (%) | Blood bilirubin increased (treatment-related adverse event) [3]: 1 (33.3) n (%) | Decreased appetite (treatment-related adverse event) [3]: 2 (66.7) n (%) | Diarrhea (treatment-related adverse event) [3]: 1 (33.3) n (%) | Fatigue (treatment-related adverse event) [3]: 1 (33.3) n (%) | GGT increased (treatment-related adverse event) [3]: 1 (33.3) n (%) | Hypoalbuminemia (treatment-related adverse event) [3]: 1 (33.3) n (%) | Malaise (treatment-related adverse event) [3]: 1 (33.3) n (%) | Nausea (treatment-related adverse event) [3]: 2 (66.7) n (%) | Neuropathy peripheral (treatment-related adverse event) [3]: 0 n (%) | Pyrexia (treatment-related adverse event) [3]: 0 n (%) | Rash (treatment-related adverse event) [3]: 0 n (%) | Vomiting (treatment-related adverse event) [3]: 1 (33.3) n (%) | WBC decreased (treatment-related adverse event) [3]: 1 (33.3) n (%) | ALP increased (treatment-related adverse event) [4]: 4 (80.0) n (%) | ALT increased (treatment-related adverse event) [4]: 5 (100.0) n (%) | AST increased (treatment-related adverse event) [4]: 4 (80.0) n (%) | Anemia (treatment-related adverse event) [4]: 1 (20.0) n (%) | Blood bilirubin increased (treatment-related adverse event) [4]: 2 (40.0) n (%) | Decreased appetite (treatment-related adverse event) [4]: 2 (40.0) n (%) | Diarrhea (treatment-related adverse event) [4]: 2 (40.0) n (%) | Fatigue (treatment-related adverse event) [4]: 1 (20.0) n (%) | GGT increased (treatment-related adverse event) [4]: 3 (60.0) n (%) | Hypoalbuminemia (treatment-related adverse event) [4]: 0 n (%) | Malaise (treatment-related adverse event) [4]: 2 (40.0) n (%) | Nausea (treatment-related adverse event) [4]: 4 (80.0) n (%) | Neuropathy peripheral (treatment-related adverse event) [4]: 2 (40.0) n (%) | Pyrexia (treatment-related adverse event) [4]: 0 n (%) | Rash (treatment-related adverse event) [4]: 2 (40.0) n (%) | Vomiting (treatment-related adverse event) [4]: 2 (40.0) n (%) | WBC decreased (treatment-related adverse event) [4]: 1 (20.0) n (%) | ALP increased (treatment-related adverse event) [5]: 0 n (%) | ALT increased (treatment-related adverse event) [5]: 1 (33.3) n (%) | AST increased (treatment-related adverse event) [5]: 2 (66.7) n (%) | Anemia (treatment-related adverse event) [5]: 1 (33.3) n (%) | Blood bilirubin increased (treatment-related adverse event) [5]: 0 n (%) | Decreased appetite (treatment-related adverse event) [5]: 1 (33.3) n (%) | Diarrhea (treatment-related adverse event) [5]: 0 n (%) | Fatigue (treatment-related adverse event) [5]: 0 n (%) | GGT increased (treatment-related adverse event) [5]: 0 n (%) | Hypoalbuminemia (treatment-related adverse event) [5]: 0 n (%) | Malaise (treatment-related adverse event) [5]: 0 n (%) | Nausea (treatment-related adverse event) [5]: 1 (33.3) n (%) | Neuropathy peripheral (treatment-related adverse event) [5]: 0 n (%) | Pyrexia (treatment-related adverse event) [5]: 2 (66.7) n (%) | Rash (treatment-related adverse event) [5]: 0 n (%) | Vomiting (treatment-related adverse event) [5]: 1 (33.3) n (%) | WBC decreased (treatment-related adverse event) [5]: 0 n (%) | ALP increased (treatment-related adverse event) [6]: 1 (33.3) n (%) | ALT increased (treatment-related adverse event) [6]: 2 (66.7) n (%) | AST increased (treatment-related adverse event) [6]: 2 (66.7) n (%) | Anemia (treatment-related adverse event) [6]: 1 (33.3) n (%) | Blood bilirubin increased (treatment-related adverse event) [6]: 0 n (%) | Decreased appetite (treatment-related adverse event) [6]: 0 n (%) | Diarrhea (treatment-related adverse event) [6]: 0 n (%) | Fatigue (treatment-related adverse event) [6]: 0 n (%) | GGT increased (treatment-related adverse event) [6]: 0 n (%) | Hypoalbuminemia (treatment-related adverse event) [6]: 0 n (%) | Malaise (treatment-related adverse event) [6]: 0 n (%) | Nausea (treatment-related adverse event) [6]: 0 n (%) | Neuropathy peripheral (treatment-related adverse event) [6]: 0 n (%) | Pyrexia (treatment-related adverse event) [6]: 0 n (%) | Rash (treatment-related adverse event) [6]: 1 (33.3) n (%) | Vomiting (treatment-related adverse event) [6]: 0 n (%) | WBC decreased (treatment-related adverse event) [6]: 1 (33.3) n (%) | ALP increased (treatment-related adverse event) (Grade ≥ 3, Total, N = 16): 1 (6.3) n (%) | ALT increased (treatment-related adverse event) (Grade ≥ 3, Total, N = 16): 5 (31.3) n (%) | AST increased (treatment-related adverse event) (Grade ≥ 3, Total, N = 16): 5 (31.3) n (%)

Reference: PMC8279981, “A first-in-human, phase 1 study of the NEDD8 activating enzyme E1 inhibitor TAS4464 in patients with advanced solid tumors” (Investigational New Drugs, 2021)
